Reference: patent US8722745B2, “Sulfur-containing compound, method of preparation and pharmaceutical uses thereof” (National Sun Yat-Sen University, priority 2007, dated 2014)

Key:
[1] = system: inducible nitric oxide synthase; assay: Protein expression of inducible nitric oxide synthase in LPS-stimulated RAW 264.7 macrophages (Western blot); type: cell-based, mouse
Protocol: (§1) A mouse macrophage cell line, RAW 264.7, purchased from the American Type Culture Collection (ATCC , No TIB-71) was chosen in the in vitro model. The cells were cultured in DMEM (Dulcbecco/s Modified Eagle medium) containing 10% fetal bovine serum (FBS) and penicillin G (100 U/mL) and streptomycin (100 μg/mL) at 37° C. and 5% CO2. When reaching 80% confluence, the cells were subcultured with trypsin. The cells were subjected to an anti-inflammation assay after subcultured for 36 hours. 3×10^6 RAW264.7 cells were cultured in a 10-cm culture dish and administered with lipopolysaccharide (LPS, 0.01 μg/mL; Sigma L2654). After 16 hours, the cells were collected. […]
(§2) The collected RAW264.7 cells were dissolved with 200 μL of 4° C. lysis buffer (50 mM Tris [pH 7.5], 150 mM NaCl, 1% TritonX-100, 0.1 mM EDTA, 0.1 mM EGTA, 10 μg PMSF, 1 μg/mL aprotinin, 20 mM NaF, and 0.2 mM Na3VO4). […] The supernatant was assayed with Bio-Rad DC protein assay kit (Bio-Rad Laboratories, Hercules, Calif., USA) and the absorbance was read with an ELISA reader (Thermo Electron Corporation, USA) for estimating the protein contents. […] After washed with TTBS for three times, an enhanced chemiluminescence detection kit was used for reading with the PVDF membrane and exposed with an X-ray film (Kodak X-OMAT LS, Kodak, Rochester, N.Y., USA) for detecting the protein expression. […]

[2] = system: multiple sclerosis (EAE); assay: Multiple sclerosis (EAE) animal model, neural function score; type: in vivo
Protocol: Female Lewis rats weighted between 280 to 300 g were used in the multiple sclerosis (MS, also called Encephalomyelitis; EAE) model (Boulerne et al, J Neurosci. 2002; 22:123-32, 2004). The animals were anesthetized with 2.5% isoflurane, and 50 μL of Complete Freund's Adjuvant (Sigma) containing 1 mg inactivated Mycobacterium tuberculosis H37Ra and 50 μg guinea pig myelin basic protein (MBP) was subcutaneous injected from the posterior paw for 100% immunizing In the control group, the rats were injected with Freund's complete adjuvant containing inactivated Mycobacterium tuberculosis H37Ra and without guinea pig myelin basic protein. The ill was observed on day 11 to 12 after immunization, and reached the peak on day 14 to 15.
The neural function was assessed on day 15. The scores represents: 0: no clinical symptom; 1: function loss in the tail; 2: partial paralysis in the posterior limbs; 3: complete paralysis in the posterior limbs; 4: paralysis in the four limbs; 5: complete paralysis in the whole body; 6: death (Liu et al. J Neuroimmunol. 2003; 139:27-35, 1998).
The rats were divided into four groups, and each group containing four animals: • Control group: Rats were subcutaneous injected from the posterior paw with Freund's complete adjuvant containing inactivated Mycobacterium tuberculosis H37Ra and without guinea pig myelin basic protein. 20 μL of normal saline was administered through the intrathecal catheter twice a day for five days from day 7. • Multiple sclerosis group: Rats were subcutaneous injected from the posterior paw with Freund's complete adjuvant containing inactivated Mycobacterium tuberculosis H37Ra and guinea pig myelin basic protein. 20 μL of normal saline was administered through the intrathecal catheter twice a day for five days from day 7. • Multiple sclerosis with treatment group: Rats were subcutaneous injected from the posterior paw with Freund's complete adjuvant containing inactivated Mycobacterium tuberculosis H37Ra and guinea pig myelin basic protein. […]

[3] = system: cyclooxygenase-2; assay: Protein expression of cyclooxygenase-2 in LPS-stimulated RAW 264.7 macrophages (Western blot); type: cell-based, mouse
Protocol: as §1, §2

[4] = system: thermal hyperalgesia after sciatic nerve chronic constriction injury; assay: Neuropathic pain model, sciatic nerve chronic constriction injury, thermal hyperalgesia; type: in vivo, rat
Protocol: The operation was performed according to the description of Wen et al, Brain Res 963:1-7, 2003. The dura mater of male Wistar rats was opened near the foramen magnum and planted with an 8.5-cm PE tube (outer diameter: 0.014 inches, inner diameter: 0.008 inches). The drugs worked near the lumbar, and the end of injection was fixed on the head. Animals those had deficient in motor or blood in the intrathecal catheter were abandoned.
The model was established similar to the sciatic nerve chronic constriction injury (CCI) established by Bennett and Xie (Pain 33:87-107, 1988). 4-O cat cut line was used to tie four nodes on the sciatic nerve. After one week, the behavior of thermal hyperalgesia was stimulated. The behavior of thermal hyperalgesia was assayed similar to the method established by Hargreaves et al (Pain 32:77-88, 1988) and recorded with an analgesiometer (IITC Inc., Woodland Hills, Calif., USA) for assessing the effect of the compound represented by formula 3 on neuropathic pain relief.
MPE(%)=(latency after drug administered−basal latency)/(30 seconds−basal latency)×100%
If a higher MPE was obtained, the effect of pain relief was better, and the maximum value of MPE was 100.

[5] = system: β-actin; assay: Protein expression of β-actin (internal control) in LPS-stimulated RAW 264.7 macrophages; type: cell-based, mouse; settings: 50 μM compound
Protocol: as §1, §2

[6] = system: neointimal proliferation of the carotid artery; assay: Atherosclerosis model in rat, balloon-induced angioplasty of carotid artery; type: in vivo
Protocol: The operation was performed according to the references of Berger et al (Atherosclerosis 175:229-234, 2004) and Chen et al (Naunyn Schmiedebergs Arch Pharmacol 368:127-133, 2003). The animals were anesthetized with 2.5% isoflurane (mixed air and oxygen of 1:1) with a 2F probe balloon catheter. The catheter was pre-filled with saline solution and positioned from the external carotid artery of the right neck into the right common carotid artery. When the catheter entered about 1.5 cm of the right common carotid artery, the balloon was inflated and rubbed forward and backward three times. Then, the catheter was removed and the external carotid artery was ligated and the incision was sutured. […] The samples were observed under an optical microscopy and photoed. The thickness of neointimal proliferation was determined. The right side of each rat was taken as the experiment group and the left side was as the control group.
In the experiment group, the compound represented by formula 3 was administered.

## CC(=O)CCS(=O)(=O)CCO [formula 3]
[1]; 10 to 30 μM compound, LPS 0.01 μg/mL
  inhibition of inducible nitric oxide synthase of macrophages: significantly inhibits
[1]; RAW 264.7 macrophages stimulated by LPS 0.01 μg/mL, 16 hours, protein expression, read-out: 50% inhibition concentration (IC50), inducible nitric oxide synthase
  IC50: 3.64 ± 0.28 µM
[2]; 10 μg/20 μL intrathecal twice a day for five days from day 7, assessed on day 15, female Lewis rats
  neural function score (0-6), multiple sclerosis with treatment group: 0.5±0.3
[2]; administered through the intrathecal catheter
  progress of multiple sclerosis: significantly represses the progress of multiple sclerosis
[2]; normal rats, 10 μg/20 μL intrathecal twice a day for five days from day 7
  neural function score (0-6), normal rats with treatment group: 0
[3]; 5 to 30 μM compound, LPS 0.01 μg/mL
  inhibition of cyclooxygenase-2 of macrophages: significantly inhibits
[3]; RAW 264.7 macrophages stimulated by LPS 0.01 μg/mL, 16 hours, protein expression
  IC50: 32.1 ± 8.1 µM
[4]; intrathecal injection, CCI rats, paw withdrawal latency
  50% effective dose (ED50) calculated from MPE: 0.75 ± 0.05 µg
[4]; intrathecal injections of 0.1, 0.5, 1, or 5 μg
  thermal hyperalgesia inhibition: significant effect on thermal hyperalgesia inhibition
[5]
  effect on protein expression of β-actin: inhibits the protein expression of β-actin
[6]; administered once a day
  neointimal proliferation (preliminary result): significantly improved
[6]; hypodermic injection 3 mg/kg a day from day 10 to 24 after operation
  atherosclerosis, numeralized intima/media: improves atherosclerosis significantly
[6]; hypodermic injection 3 mg/kg a day from day 10 to 24 after operation, slices on day 24
  neointimal proliferation stimulated by balloon-induced angioplasty: improves the neointimal proliferation
